Measurements: ChEMBL document CHEMBL3639308, “Substituted naphthyridines and their use as medicaments” (2015)

Molecular target: Tyrosine-protein kinase SYK (Homo sapiens, UniProt P43405)

IC50: 1.9 nM
SMILES: COc1cc(-c2cc3ncccc3c(O[C@H](C)[C@H]3CNC(=O)C3)n2)ccc1OC(F)(F)F
